In patent US20240368092A1, “2,4-Dihydro-3H-1,2,4-Triazol-3-One P2X7 Antagonists” (Breye Therapeutics ApS, priority 2021, published 2024):

Legend:
Type in all cases: cell-based
mouseP2X7 = target: T1, mouseP2X7 (Mus musculus, UniProt Q9Z1M0); experiment: P2X7 channel calcium-influx assay (Fluo-8, FLIPR TETRA), mouse P2X7; conditions: HEK-293 cells stably transfected with P2X7; Bz-ATP at EC80; low divalent cation buffer; read-out: mouseP2X7 (activity range)
T1 construct: expressed in transfected cells; host or cells: HEK-293
T1 sequence (Q9Z1M0 1-595): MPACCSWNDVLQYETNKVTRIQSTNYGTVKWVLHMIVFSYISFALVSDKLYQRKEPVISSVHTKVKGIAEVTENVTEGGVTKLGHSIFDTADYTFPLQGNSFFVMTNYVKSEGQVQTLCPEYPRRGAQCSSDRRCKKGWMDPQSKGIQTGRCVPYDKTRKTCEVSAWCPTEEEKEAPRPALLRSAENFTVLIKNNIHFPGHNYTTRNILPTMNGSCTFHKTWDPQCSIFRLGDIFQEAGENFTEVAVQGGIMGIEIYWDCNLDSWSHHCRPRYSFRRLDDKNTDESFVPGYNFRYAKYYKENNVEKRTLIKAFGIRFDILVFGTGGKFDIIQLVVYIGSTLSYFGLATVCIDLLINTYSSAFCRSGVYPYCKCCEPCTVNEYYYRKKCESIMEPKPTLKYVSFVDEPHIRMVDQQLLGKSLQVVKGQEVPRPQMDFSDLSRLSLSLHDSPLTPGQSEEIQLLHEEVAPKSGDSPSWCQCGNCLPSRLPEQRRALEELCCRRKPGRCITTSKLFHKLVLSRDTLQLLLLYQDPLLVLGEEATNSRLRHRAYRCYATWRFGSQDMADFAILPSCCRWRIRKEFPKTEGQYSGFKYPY
How it was run: (§1)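 HEK-293 cells stably expressing the respective species' P2X7, Fluo-8 NW loaded 1 h at RT in low divalent buffer (0.3 mM Ca2+, 0 mM Mg2+). Compound preincubated 5 min, then Bz-ATP at EC80; FLIPR calcium influx over 3 min. IC50 from % inhibition relative to reference antagonist A438079, reported as potency bins.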

humanP2X7 = target: T2, humanP2X7 (Homo sapiens, UniProt Q99572); experiment: P2X7 channel calcium-influx assay (Fluo-8, FLIPR TETRA), human P2X7; conditions: HEK-293 cells stably transfected with P2X7; Bz-ATP at EC80; low divalent cation buffer; read-out: humanP2X7 (activity range)
T2 construct: expressed in transfected cells; host or cells: HEK-293
T2 sequence (Q99572 1-595): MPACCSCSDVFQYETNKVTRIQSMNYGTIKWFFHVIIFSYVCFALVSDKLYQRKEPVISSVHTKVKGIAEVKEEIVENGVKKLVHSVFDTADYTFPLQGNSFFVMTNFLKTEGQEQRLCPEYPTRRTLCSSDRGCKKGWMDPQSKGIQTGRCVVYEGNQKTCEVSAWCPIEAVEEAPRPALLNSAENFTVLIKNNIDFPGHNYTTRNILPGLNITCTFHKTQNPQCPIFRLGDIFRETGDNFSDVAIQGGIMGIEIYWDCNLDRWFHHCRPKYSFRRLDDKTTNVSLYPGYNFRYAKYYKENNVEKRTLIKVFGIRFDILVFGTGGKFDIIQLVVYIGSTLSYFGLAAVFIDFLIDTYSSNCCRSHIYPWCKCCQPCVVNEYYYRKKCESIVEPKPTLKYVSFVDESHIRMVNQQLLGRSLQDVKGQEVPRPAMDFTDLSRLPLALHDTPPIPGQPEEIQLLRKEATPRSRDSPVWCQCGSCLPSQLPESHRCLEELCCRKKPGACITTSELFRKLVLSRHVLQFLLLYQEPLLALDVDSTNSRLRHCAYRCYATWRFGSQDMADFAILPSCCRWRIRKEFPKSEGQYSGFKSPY
How it was run: as §1

human P2X7 channel = target: T3, human P2X7 channel (Homo sapiens, UniProt Q99572); experiment: human P2X7 channel assay by automated patch-clamp (QPatch 16X); conditions: HEK-293 cells expressing P2X7; current evoked by 100 microM BzATP; whole-cell, held at -80 mV; read-out: human Q-Patch (activity range)
T3 construct: expressed in transfected cells; host or cells: HEK-293
T3 sequence (Q99572 1-595): T2 sequence (Q99572 1-595)
How it was run: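 Whole-cell patch clamp on HEK-293 cells expressing P2X7, room temperature, held at −80 mV, CsF internal and NaCl external (pH 7.4). Currents evoked by 100 microM BzATP, four controls then with compound at 1, 10, 100 and 1000 nM; peak inward current normalized, IC50 from dose-response fit, reported as potency bins.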

ratP2X7 = target: T4, ratP2X7 (Rattus norvegicus, UniProt Q64663); experiment: P2X7 channel calcium-influx assay (Fluo-8, FLIPR TETRA), rat P2X7; conditions: HEK-293 cells stably transfected with P2X7; Bz-ATP at EC80; low divalent cation buffer; read-out: ratP2X7 (activity range)
T4 construct: expressed in transfected cells; host or cells: HEK-293
T4 sequence (Q64663 1-595): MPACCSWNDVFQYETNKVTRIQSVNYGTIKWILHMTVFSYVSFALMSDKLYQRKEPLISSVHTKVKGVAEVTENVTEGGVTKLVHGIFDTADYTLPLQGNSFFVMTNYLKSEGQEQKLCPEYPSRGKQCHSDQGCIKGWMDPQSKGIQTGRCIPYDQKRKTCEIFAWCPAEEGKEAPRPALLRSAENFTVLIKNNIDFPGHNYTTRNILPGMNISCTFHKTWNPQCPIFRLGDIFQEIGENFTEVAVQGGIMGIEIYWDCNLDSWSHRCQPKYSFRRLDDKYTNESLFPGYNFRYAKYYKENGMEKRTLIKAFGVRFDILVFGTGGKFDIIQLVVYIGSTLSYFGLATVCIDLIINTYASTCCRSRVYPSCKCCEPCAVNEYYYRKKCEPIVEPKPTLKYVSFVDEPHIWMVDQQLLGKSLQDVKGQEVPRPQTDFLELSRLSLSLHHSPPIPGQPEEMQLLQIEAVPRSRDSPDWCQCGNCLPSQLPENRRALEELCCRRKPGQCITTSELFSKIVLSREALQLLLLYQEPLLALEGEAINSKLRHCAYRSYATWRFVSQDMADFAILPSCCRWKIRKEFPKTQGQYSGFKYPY
How it was run: as §1

SMILES	IC50 (mouseP2X7)	IC50 (humanP2X7)	IC50 (human P2X7 channel)	IC50 (ratP2X7)
Cn1nc(Cc2c(F)cccc2Cl)n(CCO)c1=O [Example 53, 5-(2-chloro-6-fluorobenzyl)-4-(2-hydroxyethyl)-2-methyl-2,4-dihydro-3H-1,2,4-triazol-3-one]	10000 to 30000 nM	10000 to 30000 nM	1000 to 10000 nM	10000 to 30000 nM
Cn1nc(Cc2ccccc2Cl)n(CC2CCCCCC2)c1=O [Example 55, 5-[(2-chlorophenyl)methyl]-4-(cycloheptylmethyl)-2-methyl-2,4-dihydro-3H-1,2,4-triazol-3-one]	1000 to 10000 nM	200 to 1000 nM	100 to 1000 nM	< 200 nM
Cn1nc(Cc2c(F)cccc2Cl)n(CC2(C)CCCCCC2)c1=O [Example 56, 5-[(2-chloro-6-fluorophenyl)methyl]-2-methyl-4-[(1-methylcycloheptyl)methyl]-2,4-dihydro-3H-1,2,4-triazol-3-one]	10000 to 30000 nM	1000 to 10000 nM	1000 to 10000 nM	1000 to 10000 nM
O=c1n(CCC(F)(F)F)nc(Cc2c(F)cccc2Cl)n1CC1CCC(F)(F)CC1 [Example 57, 5-[(2-chloro-6-fluorophenyl)methyl]-4-[(4,4-difluorocyclohexyl)methyl]-2-(3,3,3-trifluoropropyl)-2,4-dihydro-3H-1,2,4-triazol-3-one]	< 200 nM	< 200 nM	10 to 100 nM	< 200 nM
O=c1n(CC(F)F)nc(Cc2c(F)cccc2Cl)n1CC1CCC(F)(F)CC1 [Example 58, 5-[(2-chloro-6-fluorophenyl)methyl]-4-[(4,4-difluorocyclohexyl)methyl]-2-(2,2-difluoroethyl)-2,4-dihydro-3H-1,2,4-triazol-3-one]	< 200 nM	< 200 nM	10 to 100 nM	< 200 nM
CCn1nc(CC2CCCCCC2)n(Cc2c(F)cccc2Cl)c1=O [Example 60, 4-[(2-chloro-6-fluorophenyl)methyl]-5-(cycloheptylmethyl)-2-ethyl-2,4-dihydro-3H-1,2,4-triazol-3-one]	1000 to 10000 nM	200 to 1000 nM	100 to 1000 nM	< 200 nM
O=c1n(CC(F)(F)F)nc(CC2CCCCCC2)n1Cc1c(F)cccc1Cl [Example 61, 4-[(2-chloro-6-fluorophenyl)methyl]-5-(cycloheptylmethyl)-2-(2,2,2-trifluoroethyl)-2,4-dihydro-3H-1,2,4-triazol-3-one]	1000 to 10000 nM	200 to 1000 nM	100 to 1000 nM	< 200 nM
O=c1n(CC(F)(F)F)nc(Cc2ccccc2Cl)n1CC1CCC(F)(F)CC1 [Example 62, 5-[(2-chlorophenyl)methyl]-4-[(4,4-difluorocyclohexyl)methyl]-2-(2,2,2-trifluoroethyl)-2,4-dihydro-3H-1,2,4-triazol-3-one]	< 200 nM	< 200 nM	< 10 nM	< 200 nM
CCn1nc(Cc2ccccc2Cl)n(CC2CCC(F)(F)CC2)c1=O [Example 63, 5-[(2-chlorophenyl)methyl]-4-[(4,4-difluorocyclohexyl)methyl]-2-ethyl-2,4-dihydro-3H-1,2,4-triazol-3-one]	200 to 1000 nM	< 200 nM	10 to 100 nM	< 200 nM
CCn1nc(Cc2c(F)cccc2Cl)n(CC2CCC(F)(F)C2)c1=O (stereo not drawn) [Example 65, 5-[(2-chloro-6-fluorophenyl)methyl]-4-[(3,3-difluorocyclopentyl)methyl]-2-ethyl-2,4-dihydro-3H-1,2,4-triazol-3-one]	10000 to 30000 nM	1000 to 10000 nM	1000 to 10000 nM	200 to 1000 nM
O=c1n(CC2CC2)nc(Cc2c(F)cccc2Cl)n1CC1CCC(F)(F)C1 (stereo not drawn) [Example 66, 5-[(2-chloro-6-fluorophenyl)methyl]-2-(cyclopropylmethyl)-4-[(3,3-difluorocyclopentyl)methyl]-2,4-dihydro-3H-1,2,4-triazol-3-one]	1000 to 10000 nM	200 to 1000 nM	100 to 1000 nM	< 200 nM
O=c1n(CC(F)(F)F)nc(Cc2c(F)cccc2Cl)n1CC1CCCCCC1 [Example 67, 5-[(2-chloro-6-fluorophenyl)methyl]-4-(cycloheptylmethyl)-2-(2,2,2-trifluoroethyl)-2,4-dihydro-3H-1,2,4-triazol-3-one]	< 200 nM	< 200 nM	10 to 100 nM	< 200 nM
CN1CCCCC1Cn1c(Cc2c(F)cccc2Cl)nn(CC(F)(F)F)c1=O (stereo not drawn) [Example 68, 5-[(2-chloro-6-fluorophenyl)methyl]-4-[(1-methylpiperidin-2-yl)methyl]-2-(2,2,2-trifluoroethyl)-2,4-dihydro-3H-1,2,4-triazol-3-one]	1000 to 10000 nM	1000 to 10000 nM	1000 to 10000 nM	200 to 1000 nM
O=c1n(CC2CC2)nc(Cc2c(F)cccc2Cl)n1CC1CCC(C(F)(F)F)CC1 (stereo not drawn) [Example 69, 5-(2-chloro-6-fluorobenzyl)-2-(cyclopropylmethyl)-4-((4-(trifluoromethyl)cyclohexyl)methyl)-2,4-dihydro-3H-1,2,4-triazol-3-one]	200 to 1000 nM	< 200 nM	10 to 100 nM	< 200 nM
O=c1n(CC(F)(F)F)nc(CC2CCC(F)(F)CC2)n1Cc1c(F)cccc1Cl [Example 70, 4-[(2-chloro-6-fluorophenyl)methyl]-5-[(4,4-difluorocyclohexyl)methyl]-2-(2,2,2-trifluoroethyl)-2,4-dihydro-3H-1,2,4-triazol-3-one]	1000 to 10000 nM	200 to 1000 nM	100 to 1000 nM	< 200 nM
